According to paper PMC10669433 (Antibiotics, 2023):
Entries after “also recorded” stand apart in the source; their conditions may differ.

Assays:
[1] = test system: cardiovascular prosthetic infections (PVE, CEDI, PVGI); assay: Clinical cure in patients with cardiovascular prosthetic infections treated with dalbavancin as sequential therapy (retrospective case series); type: in vivo, human
Description: Data were collected from May 2019 to May 2023 at the Modena University Hospital, a tertiary care hospital in Northern Italy. Cardiovascular infections included PVE, CEDI, and PVGI.
(§1) Clinical evaluation was carried out at the end of treatment (EOT) and at the end of a six-month follow-up. Primary outcome was clinical cure, defined as resolution of all clinical signs and symptoms of infection, with or without radiological improvement. […] Finally, for primary outcome, a comparison between patients treated with standard (the 1500 mg infusion regimen at day 1 and day 8, with subsequent 1000 mg administrations every 2 weeks) vs. TDM-guided approach was performed.

[2] = test system: cardiovascular prosthetic infections (PVE, CEDI, PVGI); assay: Microbiological cure / relapse (blood cultures) in the case series; type: in vivo, human
Description: as §1

[3] = Adverse events in the case series; type: in vivo, human
[4] = test system: cardiovascular prosthetic infections (PVE, CEDI, PVGI); assay: 18F-FDG PET/TC radiological improvement; type: in vivo, human; conditions: 18F-FDG PET/TC available for nine patients; 6/9
Text: For diagnosis, all patients underwent clinical, microbiological, and echocardiographic evaluation (transthoracic echocardiography and transesophageal echocardiography [TEE]). Major echocardiographic criteria included vegetation, abscess, pseudoaneurysm, intracardiac fistula, valvular perforation or aneurysm, and new partial dehiscence of prosthetic valve. In addition, according to clinical indication, computed tomography (CT) angiography or cardiac one and/or 18F-fluorodeoxyglucose (FDG)-positron emission tomography (PET) PET were also performed.
Data collection included demographic information, Charlson Comorbidity Index (CCI), type and site of infection, microbiological isolation, prior antibiotic treatment, surgical procedure (performed or not, complete or partial), laboratory variables, and when available, radiological improvement (fluorodeoxyglucose positron emission tomography (FDG-PET) alone or in combination with computed tomographic angiography (CTA) to assess optimal duration of antibiotic treatment at follow-up).

[5] = cited from earlier work
Text: It is associated with good tissue penetration, including staphylococcal biofilms, making this antibiotic a promising agent to treat biofilm-mediated infections.

[6] = test system: vancomycin-resistant S. aureus (VRSA); conditions: cited from earlier work
Text: (§2) Dalbavancin is a long-acting parenteral lipoglycopeptide, a semisynthetic derivative of teicoplanin. It is characterized by a large spectrum of action against Gram-positive bacteria, such as Staphylococcus aureus (including methicillin-resistant S. aureus, but also strains with intermediate sensitivity to vancomycin), Streptococcus agalactiae, Streptococcus pyogenes, Streptococcus anginosus, vancomycin-sensitive Enterococcus faecium, and Enterococcus faecalis; it is poorly active against vancomycin-resistant S. aureus (VRSA), and it is not active against vancomycin-resistant enterococci with t ...

[7] = test system: vancomycin-resistant enterococci with the Van A phenotype; conditions: cited from earlier work
Text: as §2

[8] = test system: infective endocarditis; conditions: review, sequential dalbavancin in infective endocarditis, 170 patients; cited from earlier work
[9] = test system: infective endocarditis; parameters: method as in PMID 37442488, PMID 30389305; conditions: 124 subjects with infective endocarditis; cited from earlier work
[10] = test system: S. aureus; conditions: dalbavancin group vs 22% in the SOC group, p = 0.484; cited from earlier work
Text: Unfortunately, all patients received dalbavancin as sequential therapy, with a medi ...

CN[C@H]1C(=O)N[C@@H]2Cc3ccc(cc3)Oc3cc4cc(c3O[C@@H]3O[C@H](C(=O)O)[C@@H](O)[C@H](O)[C@H]3NC(=O)CCCCCCCCC(C)C)Oc3ccc(cc3Cl)[C@@H](O)[C@@H]3NC(=O)[C@H](NC(=O)[C@@H]4NC(=O)[C@@H](NC2=O)c2cc(cc(O)c2Cl)Oc2cc1ccc2O)c1ccc(O)c(c1)-c1c(O[C@H]2O[C@H](CO)[C@@H](O)[C@H](O)[C@@H]2O)cc(O)cc1[C@@H](C(=O)NCCCN(C)C)NC3=O [dalbavancin]
Clinical cure according to causative pathogen: E. faecalis ([1]; 1/1 patient): 100%
Clinical cure according to causative pathogen: G. morbillorum ([1]; 1/1 patient): 100%
Clinical cure according to causative pathogen: CoNS ([1]; 2/2 patients): 100%
Clinical cure according to causative pathogen: viridans Streptococcus ([1]; 3/3 patients): 100%
Clinical cure according to causative pathogen: S. aureus ([1]; 3/5 patients): 60%
Clinical success in patients treated without TDM ([1]; 3/5 patients): 60%
Clinical cure, suppressive antibiotic therapy without complete source control ([1]; 6/9 patients): 66.6%
Clinical cure at the EOT, cardiac implantable electronic devices infections (n = 3), % ([1]; CEDI, end of treatment): (66.6) %
Clinical cure at the EOT, cardiac implantable electronic devices infections (n = 3), patients/evaluable ([1]; CEDI, end of treatment): 2/3
Clinical cure at the EOT, prosthetic valve endocarditis (n = 8), % ([1]; PVE, end of treatment): (75) %
Clinical cure at the EOT, prosthetic valve endocarditis (n = 8), patients/evaluable ([1]; PVE, end of treatment): 6/8
Clinical cure at the EOT, prosthetic vascular grafts infections (n = 6), % ([1]; PVGI, end of treatment): (83.3) %
Clinical cure at the EOT, prosthetic vascular grafts infections (n = 6), patients/evaluable ([1]; PVGI, end of treatment): 5/6
Clinical cure at the EOT (n = 13), % ([1]; end of treatment, 10/13 patients): (76.9) %
Clinical cure at the EOT (n = 13), patients cured/evaluable ([1]; end of treatment, dalbavancin 1500 mg day 1 and day 8, then further doses (fixed or TDM-guided), after first-line antibiotics): 10/13
Clinical cure, patients who underwent the complete source control intervention ([1]; implant removal, 4/4 patients): 100%
Clinical cure in TDM-guided group (n = 8), patients cured/evaluable ([1]; patients with TDM-guided redosing): 7/8
Clinical Success End of Treatment ([1]; single patients): Yes (7 w); also recorded: Yes (25 w); also recorded: Yes (18 w); also recorded: Yes (29 w); also recorded: Yes (14 w); also recorded: Yes (47 w); also recorded: Yes (9 w); also recorded: No (16 w); also recorded: Yes (10 w); also recorded: Yes (20 w); also recorded: No (53 w); also recorded: No (12 w)
Clinical Success Six Months Follow-Up ([1]; single patients, one table row per patient): Yes and No
Clinical cure at six months of follow-up (n = 12), % ([1]; six-month follow-up): (75) %
Clinical cure at six months of follow-up (n = 12), patients cured/evaluable ([1]; six-month follow-up): 9/12
Microbiological relapse after treatment interruption (n = 13), patients/evaluable ([2]; after dalbavancin interruption): 1/13
Microbiological cure at the EOT (n = 13), patients/evaluable ([2]; end of treatment, sustained negativity of blood cultures): 10/13
Tolerability ([3]; 14 patients, long-term therapy): well tolerated
Adverse effect reactions: impaired renal function, % ([3]; of N = 14 patients): (7.1) %
Adverse effect reactions: rash, % ([3]; of N = 14 patients): (7.1) %
Radiological improvement with a marked SUV reduction [4]: 66.6%
elimination half-life [5]: 14 days
total protein binding [5]: 93%
clearance route ([5]; no active metabolites): predominantly renal
activity against vancomycin-resistant S. aureus (VRSA) [6]: poorly active
activity against vancomycin-resistant enterococci with the Van A phenotype [7]: not active
overall clinical efficacy [8]: around 90%
clinical success rate at 12 months of follow-up [9]: 95.2%
treatment-related readmission rates within 30 days [10]: 15%
